Source: paper PMC8112869, “Therapeutic inhibition of keratinocyte TRPV3 sensory channel by local anesthetic dyclonine” (eLife, 2021)

Experiments:
[1] = tested on: T-Rex 293 cells expressing WT TRPV3; assay: Cell death analysis by flow cytometry (propidium iodide), cells expressing WT TRPV3; type: cell-based, Homo sapiens
Method: T-Rex 293 cells were grown in DMEM containing 4.5 mg/ml glucose, 10% (vol/vol) FBS, 50 units/ml penicillin, 50 μg/ml streptomycin, and blasticidin S (10 μg/ml), and were incubated at 37°C in a humidified incubator gassed with 5% CO2. Transfections were performed in wells of a 24-well plate using lipofectamine 2000 (Invitrogen). […] Expression of GFP fluorescence detected by an epifluorescence microscope was used as an indicator of gene expression. After treatments with the compounds for 12 hr, cells were collected, washed twice with PBS, resuspended, and then dyed with propidium iodide (PI, Thermo Fisher Scientific) in the dark according to the manufacturer’s instructions. The membrane integrity of the cells was assessed using a BD FACSCelesta flow cytometer equipped with BD Accuri C6 software (BD Biosciences, USA).

mouse TRPV3 = biological target: T1, mouse TRPV3 (Mus musculus, UniProt Q8K424); assay: Single-channel inside-out patch recording of TRPV3 from HEK 293T cells; type: cell-based; set-up: expressed in transfected cells; host or cells: HEK 293T
T1 sequence (Q8K424 1-791): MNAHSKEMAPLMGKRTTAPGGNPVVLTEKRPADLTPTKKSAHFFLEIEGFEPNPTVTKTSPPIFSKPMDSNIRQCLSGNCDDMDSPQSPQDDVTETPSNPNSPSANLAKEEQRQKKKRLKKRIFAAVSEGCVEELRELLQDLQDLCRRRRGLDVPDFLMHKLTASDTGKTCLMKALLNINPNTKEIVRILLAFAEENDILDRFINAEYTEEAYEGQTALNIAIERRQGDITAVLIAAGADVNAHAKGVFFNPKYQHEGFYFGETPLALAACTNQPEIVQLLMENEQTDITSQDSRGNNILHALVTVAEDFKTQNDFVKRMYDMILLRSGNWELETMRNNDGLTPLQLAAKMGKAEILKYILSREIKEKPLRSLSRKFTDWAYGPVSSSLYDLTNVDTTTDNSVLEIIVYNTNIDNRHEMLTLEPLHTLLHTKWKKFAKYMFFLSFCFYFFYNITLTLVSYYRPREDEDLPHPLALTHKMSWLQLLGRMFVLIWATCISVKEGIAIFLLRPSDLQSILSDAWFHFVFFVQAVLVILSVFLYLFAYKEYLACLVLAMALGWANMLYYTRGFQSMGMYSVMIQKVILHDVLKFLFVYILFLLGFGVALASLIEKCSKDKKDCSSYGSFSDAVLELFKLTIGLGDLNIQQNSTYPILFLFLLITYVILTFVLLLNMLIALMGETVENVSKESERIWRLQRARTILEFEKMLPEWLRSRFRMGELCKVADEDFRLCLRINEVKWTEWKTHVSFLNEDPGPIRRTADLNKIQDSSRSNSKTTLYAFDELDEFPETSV
Text: Conventional whole-cell and excised patch-clamp recording methods were used. For the recombinant expressing system, green fluorescent EGFP was used as a surface marker for gene expression. Recording pipettes were pulled from borosilicate glass capillaries (World Precision Instruments) and fire-polished to a resistance between 2 and 4 MΩ when filled with internal solution containing (in mM) 140 CsCl, 2.0 MgCl2, 5 EGTA, and 10 HEPES, pH 7.4 (adjusted with CsOH). Bath solution contained (in mM): 140 NaCl, 5 KCl, 3 EGTA, and 10 HEPES, pH 7.4 adjusted with NaOH. For recordings in keratinocytes, the bath saline consisted of (in mM) 140 NaCl, 5 KCl, 2 MgCl2, 2 CaCl2, 10 glucoses, and 10 HEPES, pH 7.4 adjusted with NaOH, and the pipette solution contained (in mM) 140 CsCl, 5 EGTA, and 10 HEPES, pH 7.3 adjusted with CsOH. For single-channel recordings, the pipette solution and bath solution were symmetrical and contained (in mM) 140 NaCl, 5 KCl, 3 EGTA, and 10 HEPES, pH 7.4. Isolated cells were voltage clamped and held at –60 mV using an EPC10 amplifier with the Patchmaster software (HEKAElectronics, Lambrecht, Germany). For a subset of recordings, currents were amplified using an Axopatch 200B amplifier (Molecular Devices, Sunnyvale, CA) and recorded through a BNC-2090/MIO acquisition system (National Instruments, Austin, TX) using QStudio developed by Dr. Feng Qin at State University of New York at Buffalo. Whole-cell recordings were typically sampled at 5 kHz and filtered at 1 kHz, and single-channel recordings were sampled at 25 kHz and filtered at 10 kHz. The compensation of pipette series resistance and capacitance was compensated using the built-in circuitry of the amplifier (>80%) to reduce voltage errors. Exchange of external solution was performed using a gravity-driven local perfusion system. As determined by the conductance tests, the solution around a patch under study was fully controlled by the application of a flow rate of 100 μl/min or greater. Dyclonine hydrochloride, MTSET and carvacrol were purchased from MCE (MedChemExpress). Unless otherwise noted, all chemicals were purchased from Sigma (Millipore Sigma, St. Louis, MO). Water-insoluble reagents were dissolved in pure ethanol or DMSO to make a stock solution and diluted into the recording solution at the desired final concentrations before the experiment. […] In the scratching behavior experiments, carvacrol was first dissolved in 10% ethanol and then diluted in normal saline before administration. All experiments except those for heat activation were performed at room temperature (22–24℃).

## NCCOB(c1ccccc1)c1ccccc1 [2-APB, 2-aminoethoxydiphenyl borate]
[1]; 2-APB (30 μM) alone, 12 hr, averaged from seven experiments
  cell death ratio: 43.73% ± 3.46%
Mouse TRPV3; 10 μM 2-APB before dyclonine treatment
  unitary conductance: 163.6 ± 6.4 pS
Mouse TRPV3; 10 μM 2-APB without dyclonine, +60 mV
  single-channel open probability: 0.82 ± 0.02
Mouse TRPV3; 10 μM 2-APB without dyclonine, –60 mV
  single-channel open probability: 0.8 ± 0.02

## CCCCOc1ccc(C(=O)CCN2CCCCC2)cc1 [dyclonine]
[1]; dyclonine (50 μM) added to 2-APB (30 μM), averaged
  cell death ratio: 9.12% ± 1.42%
Mouse TRPV3; 10 μM 2-APB with 30 μM dyclonine
  unitary conductance: 179.2 ± 5.5 pS
Mouse TRPV3; 30 μM dyclonine with 10 μM 2-APB, +60 mV
  single-channel open probability: 0.12 ± 0.01
Mouse TRPV3; 30 μM dyclonine with 10 μM 2-APB, –60 mV
  single-channel open probability: 0.08 ± 0.01
